# Measurements taken from patent publication US20260144776A1, “COMBINATION THERAPY FOR A DOPAMINE AGONIST” (priority 2017, published 2026).
# Assays:
# humans = settings: in vivo
# Experimental: The study was single center, single-blind study.
# Once a subject had reached his/her first intolerable dose (FID-1), upward dose escalation was discontinued.
# All other provisions of the protocol remained unchanged. Assessments were the same as those planned for the dose escalation day.
# On each study day, subjects were followed up for up to 8 hours following drug administration for AEs, vital signs, ECGs. In addition, a laboratory panel was taken at screening and at the end of the study.
# [1] = test system: animal behavior simulating symptoms of depression; settings: high doses of pramipexole; cited from earlier work
# [2] = test system: patients with a DSM-III-R diagnosis of major depression; settings: pramipexole 5.0 mg group, cited from earlier work
# [3] = test system: depressive symptoms in patients with PD; settings: 12 weeks, 296 PD patients, pramipexole 0.125 to 1.0 mg/kg; placebo 4.0 (SE 0.5), p=0.01; cited from earlier work
compound,measurement,setting,value
"CCCN[C@H]1CCc2nc(N)sc2C1 [Pramipexole, (S)-6-propylamino-4,5,6,7-tetrahydro-1,3-benzothiazole-2-amine]",dose limiting toxicity,humans,gastro-intestinal adverse events
same,activity in tests of animal behavior simulating symptoms of depression,[1],active
same,patients who discontinued treatment prematurely,[2]; mainly because of adverse events,57.6%
same,improvement at week 8 (change from baseline),"[2]; best improvement, no p value against placebo because of drop-out rate",−15.00
same,patients who reported nausea,[2],76%
same,patients who reported vomiting,[2],39%
same,BDI scores decreased by an adjusted,[3],5.9 (SE 0.5)
